From patent US10919916B2, “Boron-containing small molecules” (Bill & Melinda Gates Foundation, priority 2016, dated 2021)
In brackets after ≈: the same amount, converted by molar mass. Where two headings read alike, the source gives them in different places.

How the values were obtained:
[1] = tested on: Staphylococcus aureus, MRSA (ATCC 33591); experiment: Antibacterial MIC assay (microbroth dilution, CLSI); type: cell-based; settings: read-out: MIC Staphylococcus aureus, MRSA (ATCC 33591)
Description: (§1) All MIC testing of bacteria followed the Clinical and Laboratory Standards Institute (CLSI) guidelines for antimicrobial testing of aerobic bacteria (Methods for Dilution Antimicrobial Susceptibility Tests for Bacteria that Grow Aerobically; Approved Standard—Tenth Edition, M07-A10; Performance Standards for Antimicrobial Susceptibility Testing; Twenty-fifth Informational Supplement, M100-S25).
(§2) Briefly, the microbroth dilution MIC method was used to quantitatively measure the in vitro antibacterial activity of a compound against a given bacterial isolate. The following bacterial strains were evaluated: Staphylococcus aureus, MRSA (ATCC 33591) and Streptococcus pneumoniae (ATCC 49619). Bacteria were grown in cation-adjusted Mueller-Hinton broth, with additions as required per species growth requirements (e.g. 3% lysed horse blood for fastidious organisms such as S. pneumoniae). A direct colony suspension in saline was prepared from colonies on an overnight agar plate to achieve a turbidity equivalent to 0.5 McFarland standard, which was subsequently diluted into the assay plate to achieve 5×10^5 CFU/mL. Assays plates were prepared by 2-fold dilution of compound across the plate and included a positive growth control.

[2] = tested on: Streptococcus pneumoniae (ATCC 49619); experiment: as above; type: cell-based
Description: as §1
as §2, with “The following bacterial strains were evaluated: Staphylococcus aureus, MRSA (ATCC 33591) and Streptococcus pneumoniae (ATCC 49619).” left out

[3] = ATCC49619, read-out: MIC Streptococcus pneumoniae (ATCC 49619)
[4] = microbroth dilution, cation-adjusted Mueller-Hinton broth, 35° C. for 16-20 hours
[5] = ATCC49619, microbroth dilution, 3% lysed horse blood, 35° C. for 16-20 hours, read-out: MIC Streptococcus pneumoniae (ATCC 49619)

SMILES | MIC [1] | MIC [2, 3] | MIC [1, 4] | MIC [2, 5]
C=C[C@]1(C)C[C@@H](OC(=O)CNc2ccc3c(c2)B(O)OC3)[C@]2(C)[C@H](C)CC[C@]3(CCC(=O)[C@H]32)[C@@H](C)[C@@H]1O [Compound 45, (3aR,4R,5R,7S,8S,9R,9aS,12R)-8-hydroxy-4,7,9,12-tetramethyl-3-oxo-7-vinyldecahydro-4,9a-propanocyclopenta[8]annulen-5-yl (1-hydroxy-1,3-dihydrobenzo[c][1,2]oxaborol-6-yl)glycinate] | < 0.25 µg/mL | 0.5 to 2 µg/mL (≈ 0.981 to 3.93 µM) |  | 
C=C[C@]1(C)C[C@@H](OC(=O)COc2ccc3c(c2)B(O)OC3C)[C@]2(C)[C@H](C)CC[C@]3(CCC(=O)[C@H]32)[C@@H](C)[C@@H]1O (stereo partly drawn) [Compound 19, (3aR,4R,5R,7S,8S,9R,9aS,12R)-8-hydroxy-4,7,9,12-tetramethyl-3-oxo-7-vinyldecahydro-4,9a-propanocyclopenta[8]annulen-5-yl 2-((1-hydroxy-3-methyl-1,3-dihydrobenzo[c][1,2]oxaborol-6-yl)oxy)acetate] | < 0.25 µg/mL | 0.5 to 2 µg/mL (≈ 0.953 to 3.81 µM) |  | 
C=C[C@]1(C)C[C@@H](OC(=O)COc2ccc3c(c2)B(O)N(C)N=C3)[C@]2(C)[C@H](C)CC[C@]3(CCC(=O)[C@H]32)C[C@@H]1O [Compound 83, (3aR,4R,5R,7S,8S,9aS,12R)-8-hydroxy-4,7,12-trimethyl-3-oxo-7-vinyldecahydro-4,9a-propanocyclopenta[8]annulen-5-yl 2-((1-hydroxy-2-methyl-1,2-dihydrobenzo[d][1,2,3]diazaborinin-7-yl)oxy)acetate] |  |  | < 0.25 µg/mL | < 0.25 µg/mL
C=C[C@]1(C)C[C@@H](OC(=O)COc2ccc3c(c2)B(O)OC3)[C@]2(C)[C@H](C)CC[C@]3(CCC(=O)[C@H]32)[C@@H](C)[C@@H]1O [Compound 1, (3aR,4R,5R,7S,8S,9R,9aS,12R)-8-hydroxy-4,7,9,12-tetramethyl-3-oxo-7-vinyldecahydro-4,9a-propanocyclopenta[8]annulen-5-yl 2-((1-hydroxy-1,3-dihydrobenzo[c][1,2]oxaborol-6-yl)oxy)acetate] | < 0.25 µg/mL | < 0.25 µg/mL |  | 
C=C[C@]1(C)C[C@@H](OC(=O)CNc2ccc3c(c2F)B(O)OC3)[C@]2(C)[C@H](C)CC[C@]3(CCC(=O)[C@H]32)[C@@H](C)[C@@H]1O [Compound 54, (3aR,4R,5R,7S,8S,9R,9aS,12R)-8-hydroxy-4,7,9,12-tetramethyl-3-oxo-7-vinyldecahydro-4,9a-propanocyclopenta[8]annulen-5-yl (7-fluoro-1-hydroxy-1,3-dihydrobenzo[c][1,2]oxaborol-6-yl)glycinate] | < 0.25 µg/mL | 0.5 to 2 µg/mL (≈ 0.948 to 3.79 µM) |  | 
C=C[C@]1(C)C[C@@H](OC(=O)COc2ccc3c(c2F)B(O)ON=C3)[C@]2(C)[C@H](C)CC[C@]3(CCC(=O)[C@H]32)[C@@H](C)[C@@H]1O [Compound 97, (3aR,4R,5R,7S,8S,9R,9aS,12R)-8-hydroxy-4,7,9,12-tetramethyl-3-oxo-7-vinyldecahydro-4,9a-propanocyclopenta[8]annulen-5-yl 2-((8-fluoro-1-hydroxy-1H-benzo[d][1,2,6]oxazaborinin-7-yl)oxy)acetate] | < 0.25 µg/mL | 0.5 to 2 µg/mL (≈ 0.923 to 3.69 µM) |  | 
C=C[C@]1(C)C[C@@H](OC(=O)COc2ccc3c(c2F)B(O)OC3CN)[C@]2(C)[C@H](C)CC[C@]3(CCC(=O)[C@H]32)[C@@H](C)[C@@H]1O.Cl (stereo partly drawn) [Compound 29, (3aR,4R,5R,7S,8S,9R,9aS,12R)-8-hydroxy-4,7,9,12-tetramethyl-3-oxo-7-vinyldecahydro-4,9a-propanocyclopenta[8]annulen-5-yl 2-((3-(aminomethyl)-7-fluoro-1-hydroxy-1,3-dihydrobenzo[c][1,2]oxaborol-6-yl)oxy)acetate Hydrochloride] |  |  | 0.5 to 2 µg/mL | 0.5 to 2 µg/mL
C=C[C@]1(C)C[C@@H](OC(=O)COc2cc(F)c3c(c2)COB3O)[C@]2(C)[C@H](C)CC[C@]3(CCC(=O)[C@H]32)[C@@H](C)[C@@H]1O [Compound 33, (3aR,4R,5R,7S,8S,9R,9aS,12R)-8-hydroxy-4,7,9,12-tetramethyl-3-oxo-7-vinyldecahydro-4,9a-propanocyclopenta[8]annulen-5-yl 2-((7-fluoro-1-hydroxy-1,3-dihydrobenzo[c][1,2]oxaborol-5-yl)oxy)acetate] | < 0.25 µg/mL | 0.5 to 2 µg/mL (≈ 0.946 to 3.78 µM) |  | 
C=C[C@]1(C)C[C@@H](OC(=O)COc2cc3c(cc2C)COB3O)[C@]2(C)[C@H](C)CC[C@]3(CCC(=O)[C@H]32)[C@@H](C)[C@@H]1O [Compound 10, (3aR,4R,5R,7S,8S,9R,9aS,12R)-8-hydroxy-4,7,9,12-tetramethyl-3-oxo-7-vinyldecahydro-4,9a-propanocyclopenta[8]annulen-5-yl 2-((1-hydroxy-5-methyl-1,3-dihydrobenzo[c][1,2]oxaborol-6-yl)oxy)acetate] |  |  | < 0.25 µg/mL | < 0.25 µg/mL
C=C[C@]1(C)C[C@@H](OC(=O)CNc2cc3c(cc2CN)COB3O)[C@]2(C)[C@H](C)CC[C@]3(CCC(=O)[C@H]32)[C@@H](C)[C@@H]1O [Compound 47, (3aR,4R,5R,7S,8S,9R,9aS,12R)-8-hydroxy-4,7,9,12-tetramethyl-3-oxo-7-vinyldecahydro-4,9a-propanocyclopenta[8]annulen-5-yl (5-(aminomethyl)-1-hydroxy-1,3-dihydrobenzo[c][1,2]oxaborol-6-yl)glycinate] |  |  | 0.5 to 2 µg/mL (≈ 0.929 to 3.71 µM) | 4 to 32 µg/mL (≈ 7.43 to 59.4 µM)
C=C[C@]1(C)C[C@@H](OC(=O)C[S@+]([O-])c2ccc3c(c2F)B(O)OC3)[C@]2(C)[C@H](C)CC[C@]3(CCC(=O)[C@H]32)[C@@H](C)[C@@H]1O [Compound 66, (3aR,4R,5R,7S,8S,9R,9aS,12R)-8-hydroxy-4,7,9,12-tetramethyl-3-oxo-7-vinyldecahydro-4,9a-propanocyclopenta[8]annulen-5-yl 2-((S)-(7-fluoro-1-hydroxy-1,3-dihydrobenzo[c][1,2]oxaborol-6-yl)sulfinyl)acetate] | 0.5 to 2 µg/mL (≈ 0.892 to 3.57 µM) | 4 to 32 µg/mL (≈ 7.14 to 57.1 µM) |  | 
C=C[C@]1(C)C[C@@H](OC(=O)C[S@+]([O-])c2ccc3c(c2)B(O)OC3)[C@]2(C)[C@H](C)CC[C@]3(CCC(=O)[C@H]32)[C@@H](C)[C@@H]1O [Compound 63, (3aR,4R,5R,7S,8S,9R,9aS,12R)-8-hydroxy-4,7,9,12-tetramethyl-3-oxo-7-vinyldecahydro-4,9a-propanocyclopenta[8]annulen-5-yl 2-((S)-(1-hydroxy-1,3-dihydrobenzo[c][1,2]oxaborol-6-yl)sulfinyl)acetate] | 0.5 to 2 µg/mL (≈ 0.922 to 3.69 µM) | 4 to 32 µg/mL (≈ 7.37 to 59 µM) |  | 
C=C[C@]1(C)C[C@@H](OC(=O)COc2cc(CN)c3c(c2Cl)B(O)OC3)[C@]2(C)[C@H](C)CC[C@]3(CCC(=O)[C@H]32)[C@@H](C)[C@@H]1O [Compound 8, (3aR,4R,5R,7S,8S,9R,9aS,12R)-8-hydroxy-4,7,9,12-tetramethyl-3-oxo-7-vinyldecahydro-4,9a-propanocyclopenta[8]annulen-5-yl 2-((4-(aminomethyl)-7-chloro-1-hydroxy-1,3-dihydrobenzo[c][1,2]oxaborol-6-yl)oxy)acetate] | < 0.25 µg/mL | 0.5 to 2 µg/mL (≈ 0.871 to 3.48 µM) |  | 
C=C[C@]1(C)C[C@@H](OC(=O)COc2cc3c(cc2F)B(O)OC3)[C@]2(C)[C@H](C)CC[C@]3(CCC(=O)[C@H]32)[C@@H](C)[C@@H]1O [Compound 34, (3aR,4R,5R,7S,8S,9R,9aS,12R)-8-hydroxy-4,7,9,12-tetramethyl-3-oxo-7-vinyldecahydro-4,9a-propanocyclopenta[8]annulen-5-yl 2-((6-fluoro-1-hydroxy-1,3-dihydrobenzo[c][1,2]oxaborol-5-yl)oxy)acetate] | < 0.25 µg/mL | 0.5 to 2 µg/mL (≈ 0.946 to 3.78 µM) |  | 
